In publication PMC9685055, “Biological activity of new bioactive steroids deriving from biotransformation of cortisone” (Microbial Cell Factories, 2022):

Experiments:
[1] = tested on: primary cultures of rat cerebral cortex neurons; test: Glutamate-induced neurotoxicity, MTT viability; type: cell-based; conditions: 10 μM, added 15 min before glutamate; viability 24 h later
Procedure: Primary cultures of cortical neurons have been prepared from 1 day-old male rats [41]. After re-suspension in the plating medium, the cells were counted and then plated on poly-l-lysine (5 μg/mL)-coated dishes at a density of 2.5 × 10^6 cells/dish or on poly-l-lysine (5 μg/mL)-coated 24-well plates at a density of 0.5 × 10^6 cells/dish. The plating medium consisted of Eagle's Basal Medium supplemented with 10% inactivated fetal calf serum, 25 mM KCl, 2 mM glutamine and 100 μg/mL gentamycine. […] Cytosine arabinoside (10 μM) was added within 24 h of plating to prevent glial cell proliferation [41]. The cultures were maintained for 8 days in vitro before experiments.
The cultures were then returned to the incubator in their growth medium. 24 h later, the glutamate-induced neurotoxicity was evaluated by measuring the neuronal viability. The different drugs tested were added 15 min before glutamate exposure and were present until the end of the experiment.
The integrity of mitochondrial enzymes in viable neurons was determined with a colorimetric assay using 3-[4,5-dimethylthial-2-yl]-3, 5-diphenyl-tetrazolinium bromide (MTT) salt, as described by Mosdam [42]. […] The precipitated dye was dissolved in isopropanol with 1 M HCl and colorimetrically (absorbance at 570 nm) quantified. The results were expressed as values of absorbance at 570 nm.

[2] = tested on: IL-1α secretion in TNFα-stimulated HaCaT cells; test: TNFα-induced IL-1α secretion, ELISA; type: cell-based, human; conditions: 10 μM pretreatment 24 h, then 10 ng/mL TNFα 1 h, supernatant 24 h later
Procedure: HaCaT cells were cultured with Dulbecco’s modified Eagle’s medium High Glucose (Lonza, Milan, Italy) supplemented with 10% FBS, 100 U/mL penicillin, 100 μg/mL streptomycin and 2 mM L-glutamine as previously described. Cells were maintained in a humidified incubator at 37 °C with 5% CO2 and incubated until the monolayer was 80% confluent. Medium was changed every 2 days.
HaCaT cells were pretreated with or without 10 μM of both SCA and SCB for 24 h. Stock solutions of the two compounds were prepared in DMSO immediately before use and diluted to the final concentration in the culture medium. In some sets of experiments, betamethasone-17-valerate (10 µg/mL) served as a positive control; dimethyl sulfoxide (DMSO) served as a solvent control. After the pretreatments, cells were stimulated with 10 ng/mL TNFα for 1 h to induce the NFκB signaling pathway. Then, media were replaced with fresh culture medium. […]
IL-1α secretion, after the treatment with 10 and 20 µM of each compound and together at the same concentrations, was assayed by a commercially available ELISA kit (Thermo Scientific, Italy). […] The optical absorbance was measured with a spectrophotometer microplate reader at 450 nm and correction at 530 nm. Final concentrations were calculated by interpolation with a standard curve of Recombinant Human IL-1α provided by the kit and results expressed as pg/mL.

[3] = DPPH radical scavenging assay; conditions: 0.1 mg/mL; Trolox equivalents
Procedure: The DPPH assay was evaluated according to Aadil (2013) and Bonetti (2016). Fifty microliters of samples (cortisone, SCA and SCB) were added to […] of 0.06 mM of methanolic DPPH· radical solution. The reaction mixture was left to stand at room temperature in the dark for 15 min. The absorbance for the sample (Asample) was measured at 515 nm against methanol blank. A control was the absorbance of DPPH· solution.
Methanolic solutions with different Trolox concentrations (0.05 − 1 mM/L) were analyzed for calibration curve. The free radical scavenging capacity was expressed as micromolar of Trolox equivalents (TEs)/g of SCA and SCB compounds using calibration curve.

[4] = target: T1, human glucocorticoid receptor (NR3C1) (Homo sapiens, UniProt P04150); test: Glucocorticoid receptor transactivation reporter assay; type: cell-based; conditions: 10 µM, 24 h, luciferase reporter cells
T1 construct: constitutive high-level expression of full length, unmodified human glucocorticoid receptor (NR3C1)
T1 sequence (P04150 1-777): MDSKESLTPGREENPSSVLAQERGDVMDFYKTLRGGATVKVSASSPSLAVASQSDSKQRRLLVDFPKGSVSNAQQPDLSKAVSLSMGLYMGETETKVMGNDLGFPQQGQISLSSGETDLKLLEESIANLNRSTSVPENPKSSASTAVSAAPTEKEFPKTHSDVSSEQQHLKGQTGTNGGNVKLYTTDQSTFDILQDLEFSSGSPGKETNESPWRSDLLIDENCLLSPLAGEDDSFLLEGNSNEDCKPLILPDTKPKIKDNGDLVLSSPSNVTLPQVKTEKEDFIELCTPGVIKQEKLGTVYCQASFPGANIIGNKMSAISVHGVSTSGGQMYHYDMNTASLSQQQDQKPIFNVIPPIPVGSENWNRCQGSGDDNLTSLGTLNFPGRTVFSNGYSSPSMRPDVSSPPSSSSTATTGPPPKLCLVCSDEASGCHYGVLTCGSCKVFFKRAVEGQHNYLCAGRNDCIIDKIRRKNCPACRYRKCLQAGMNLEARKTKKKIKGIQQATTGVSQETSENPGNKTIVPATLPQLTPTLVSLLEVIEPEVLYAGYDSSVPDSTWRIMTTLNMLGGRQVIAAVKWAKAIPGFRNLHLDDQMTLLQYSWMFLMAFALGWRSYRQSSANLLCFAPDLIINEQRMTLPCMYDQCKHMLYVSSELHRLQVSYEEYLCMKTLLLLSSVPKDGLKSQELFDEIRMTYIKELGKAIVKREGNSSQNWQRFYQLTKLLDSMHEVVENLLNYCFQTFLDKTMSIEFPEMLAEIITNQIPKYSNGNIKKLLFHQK
Procedure: Glucocorticoid receptor transactivation assays kit was obtained from Indigo Biosciences (Human Glucocorticoid Receptor Reporter Assay Kit, Product #IB0020-32; Indigo Biosciences, State College, PA, USA) and was utilized to assess the activation of human glucocorticoid receptor by SCA and/or SCB. Briefly, stocks of the tested compounds were prepared and diluted in a medium provided by the manufacturer. Frozen reporter cells provided in the assay kit were thawed and compound dilutions were added immediately. Cells were incubated for 24 h and the activation response was measured on a luminometer (Perkin-Elmer, MA, USA). The cells consisted of non-human mammalian cells engineered by Indigo Biosciences to provide constitutive high-level expression of full length, unmodified human glucocorticoid receptor (NR3C1). The nonhuman mammalian reporter cells included a luciferase reporter gene functionally linked to a human glucocorticoid receptor-responsive promoter. The cells are engineered so that only interactions with the human receptor will induce luciferase expression in the treated reporter cells to quantitate nuclear receptor activation. Positive control ligand performance was measured by the manufacturer and provided in the technical manuals thus allowing accurate comparison for assay performance. […]

SMILES | effect on glutamate-induced neurotoxicity (cell viability, MTT) [1] | effect on TNFα-triggered IL-1α release [2] | DPPH radical scavenging activity (in words) [3] | glucocorticoid receptor activation [4]
Cc1ccc(O)c2c1CCC1C3CC[C@](O)(C(=O)CO)[C@@]3(C)CC(=O)[C@@]21O (stereo partly drawn) [SCA, 1,9β,17,21‐tetrahydoxy‐4‐methyl‐19‐nor‐9β‐pregna‐1,3,5(10)‐trien‐11,20‐dione] | partially reduced | markedly inhibited | high antioxidant property compared with the cortisone precursor | activated glucocorticoid receptors
Cc1ccc(O)c2c1CCC1C3CC[C@](O)([C@H](O)CO)[C@@]3(C)CC(=O)[C@@]21O (stereo partly drawn) [SCB, 1,9β,17,20β,21‐ pentahydoxy‐4‐methyl‐19‐nor‐9β‐pregna‐1,3,5(10)‐trien‐11‐one] | partially reduced | markedly inhibited | high antioxidant property compared with the cortisone precursor | activated glucocorticoid receptors
